Laboratory results reported in patent US10155936B2, “Parkin ligase activation methods and compositions” (An2H Discovery Limited, priority 2014, dated 2018).

Assays:
Parkin ligase [1] = molecular target: T1, Parkin ligase (Homo sapiens, UniProt O60260); assay: Activity-based probe assay using a ubiquitin vinyl sulfone probe (TR-FRET); format: biochemical; conditions: heat activated Parkin, HA-Ub-VS probe, TR-FRET signal; FIG. 1, FIG. 2
T1 construct: Enzyme: Parkin-His tagged 203 μM (10.5 mg/ml)
T1 sequence (O60260 1-465): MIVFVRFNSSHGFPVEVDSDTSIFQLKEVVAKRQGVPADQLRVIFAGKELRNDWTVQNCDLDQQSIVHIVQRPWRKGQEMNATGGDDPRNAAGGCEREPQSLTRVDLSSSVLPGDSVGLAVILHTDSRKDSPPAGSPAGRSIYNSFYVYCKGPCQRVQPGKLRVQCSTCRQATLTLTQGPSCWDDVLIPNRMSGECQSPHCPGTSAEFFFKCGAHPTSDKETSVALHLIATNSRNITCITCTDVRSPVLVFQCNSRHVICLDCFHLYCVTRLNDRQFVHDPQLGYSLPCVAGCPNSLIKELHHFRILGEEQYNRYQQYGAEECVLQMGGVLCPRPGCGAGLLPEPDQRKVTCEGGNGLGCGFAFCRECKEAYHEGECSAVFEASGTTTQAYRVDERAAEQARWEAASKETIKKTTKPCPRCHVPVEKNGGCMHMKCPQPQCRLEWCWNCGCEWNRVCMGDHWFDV
Experimental: A Ubiquitin vinyl sulfone probe can be used that irreversibly binds to the active site cysteine of Parkin ligase. Covalent attachment of the probe to the Parkin can be monitored by TR-FRET. Candidate activator compounds can be identified by increasing the activity of Parkin ligase due to an increase in TR-FRET signal. Screening for activating compounds can be distinguished from the controls as follows: • 100% activation signal=Heat activated Parkin+100 nM control activator in DMSO. 0% activation signal=Heat activated Parkin+DMSO only. Parkin activators can be identified by an increase of the 0% activation signal TR-FRET signal. […]
(§1) Data Analysis: The Data can be read in CSV files. […]

Parkin ligase [2] = molecular target: T2, Parkin ligase (Homo sapiens, UniProt O60260); assay: Parkin pUB auto-ubiquitinylation assay (TR-FRET); format: biochemical; conditions: for Parkin activity in an auto-ubiquitination assay: pUb activated Parkin, E1-E2 cascade, TR-FRET signal, FIG. 3, FIG. 5
T2 construct: Enzyme 3: Parkin-His tagged 203 μM (10.5 mg/ml) Supplied by An2H
Source text: A Parkin pUB Auto-ubiquitinylation Assay is used to evaluate a candidate compound's potency to activate Parkin's ability to Auto-ubiquitinylate itself.
The principle of this assay is that the E3 Ligase Parkin catalyzes the transfer of Ubiquitin to target proteins, but also has the ability to auto-ubiquitinylate itself. The phospho-Ubiquition (pUb) added to the assay alters the Parkin to a state where small molecule activators can enable the Parkin to auto-ubiquitinylate though the E1-E2 cascade reaction. The use of a Eu cryptate Ubiquition and anti 6His-d2 that binds to the His tagged Parkin will give a signal when the Eu cryptate Ubiquition is auto-ubiquitinylate onto the Parkin which can be monitored by TR-FRET.
Similar to the Activity-based probe assay in Examples 2 and 3, screening for activating compounds can be distinguished from the controls as follows: • 100% activation signal=pUb activated Parkin+40 nM control activator in DMSO. • 0% activation signal=pUb activated Parkin+DMSO only. • Parkin activators can be identified by an increase of the 0% activation signal TR-FRET signal. […]
Assay Procedure: • 1) Load assay plate wells with 4.9 μl 400.0 nM Parkin, 800 nM pUb in reaction buffer by use of Bravo. • 2) Deliver 0.1 μl 100× activator candidates in DMSO by use of HP D-300 compound dispenser. […] Add each compound and control in duplicate wells. • 3) Spin 1000 rpm, 2 minutes, at room temp. • 4) Incubate plate for 15 minutes at room temp. • 5) Add 5 μl 10 nM E1, 100 nM E2, 17.6 nM Ubiquitin Eu and 2 mM ATP in Reaction Buffer by use of Bravo. • 6) Spin 1000 rpm, 2 minutes, at room temp. • 7) Incubate plate for 120 minutes at room temp. • 8) Add 10 μl 13.4 nM anti his d2 in detection buffer by use of Bravo. • 9) Spin 1000 rpm, 2 minutes, at room temp. • 10) Incubate plate for 60 minutes at room temp. • 11) Read plates on Perkin Elmer Envision instrument.
as §1

Parkin ligase [3] = molecular target: T1, Parkin ligase; assay: Tandem mass spectrometry of Parkin ligase incubated with compound, after proteolytic digestion; format: binding; conditions: tandem mass spectrometry of proteolytic fragments
Experimental: Parkin ligase was incubated with AH007 compound, and the mixture was then subject to tandem mass spectometry analysis after proteolytic digestion to produce fragments of Parkin ligase. […] Compound An2H07 is also fragmented when analyzed by mass spectrometry. Therefore, characteristic pieces of the compound AH007 that are attached to specific residues of Parkin can also be identified. These fragments were characterized for alterations in fragment size indicative of bound small molecule of the predicted molecular weight of AH007. The mass spectrometry data identified three specific fragments of AH007 at two specific residues of Parkin ligase. The data identified a fragment of 253.08-256.09 of AH007 compound attached to cysteine residue 377 of Parkin ligase (C377) and a fragment of 343.14-346.14 of AH007 compound attached to C377. The data also identified a fragment of 253.08-256.09 of AH007 compound attached to cysteine residue 59 of Parkin ligase (C59). […] It is also believed that at least C377 is included in ZnF domains of human Parkin Ligase, and thus accords with the theory that cysteine residues in the flexible Parkin ligase ZnF domains are vulnerable for attachment and/or interruption by small molecule candidates. Peptide fragments of Parkin comprising C59 and/or C377 will be useful to design further binding assays and selection of additional modulating agents.

Row | Parkin Ligase reaction with the Activity-based Ubiquitin vinyl sulfone probe (Parkin ligase [1]) | Parkin activity in an auto-ubiquitination assay (Parkin ligase [2]) | SMILES | parkin activation in an auto-ubiquitination assay, compound with pUB (Parkin ligase [2]; compound together with pUB, FIGS. 4A and 4B) | binding residues of Parkin ligase for the compound (Parkin ligase [3])
1 | increases the Parkin Ligase reaction | increases Parkin activity | O=C(Nc1nc(NC(=O)c2ccccc2)n(-c2ccccc2)n1)c1ccccc1 [AH001, N,N′-(1-phenyl-1H-1,2,4-triazole-3,5-diyl)dibenzamide] | synergistically increases parkin activation | –
2 | increases the Parkin Ligase reaction | increases Parkin activity | Cc1nc2c(-c3ccccc3)c(C)nn2c(S)c1Cc1ccccc1 [AH007, 6-benzyl-2,5-dimethyl-3-phenylpyrazolo[1,5-a]pyrimidine-7-thiol] | – | binds and/or attaches to two specific sites in Parkin ligase: C59 and C377
